Test results reported in patent publication EP4786458A1, “ANALGESIC COMPOUND, PREPARATION METHOD THEREFOR, AND USE THEREOF” (West China Hospital, Sichuan University, priority 2023, dated 2025).

Key:
[1] = Loss of tail withdrawal reflex (LOTWR) in rats, single intravenous injection, dose escalation for efficacy and severe adverse reactions; format: in vivo, SD rats; details: rat, in vivo, single intravenous injection, minimum dose resulting in serious adverse reactions / minimum effective dose, class symbol, read-out: The safety therapeutic index
Method: (§1) Using the loss of tail withdrawal reflex (LOTWR) in rats as an indicator, the potent analgesic effect of the compounds according to the present invention was evaluated.
(§2) 1.1 Experimental animals: Adult male SD rats weighing between 220-300 g were selected for the experiment. The rats were housed in sawdust-bedded cages with a temperature of 25+1°C, humidity ranging from 40% to 60%, and a 12-hour light/12-hour dark cycle. Each cage contained no more than 5 rats, with free access to water and food.
(§3) • (1) The compound of the present invention, along with the positive control drug remifentanil and the negative control (vehicle), were administered in fixed volumes. A dose escalation approach was employed to determine the minimum effective dose at which the compound of the present invention produces potent analgesic effects, as well as the minimum dose at which severe adverse reactions first appear. • (2) LOTWR lasting for 30 seconds was used as the criterion for generating potent analgesic effects. During the experiment, drugs were administered via the tail vein of rats, with a dosage volume of 0.6 mL per rat and a dosage rate of 0.02 mL/s. Subsequently, an alligator clip was applied at a distance of 1 cm from the base of the rat's tail, clamping once longitudinally and once transversely before being left in place. Meanwhile, the distal end of the alligator clip was continuously oscillated (30 times/min) to continuously generate stimulation. […] When all results were "no LOTWR" after 10 minutes of testing (5 trials), the test was stopped and recorded as "ineffective." • (3) All compounds would undergo a dose escalation for efficacy evaluation, starting from 1 mg/kg (due to the high potency of remifentanil, the lowest dose was set at 1 µg/kg), followed by 5 mg/kg, 10 mg/kg, 20 mg/kg, and so on (increasing by 20 mg/kg increments after 20 mg/kg). The dose escalation would be stopped when rats show signs of death, and the lowest effective dose and the lowest dose at which severe adverse reactions occur would be recorded throughout the process. In this study, severe adverse reactions are defined as apnea, generalized tonic rigidity, convulsions, opisthotonus, seizures, etc.
(§4) 1.3 Evaluation indicators: the minimum effective dose; the minimum dose resulting in serious adverse reactions; the safety therapeutic index = "the minimum dose resulting in serious adverse reactions" / "the minimum effective dose".

rats = experiment: as above; format: in vivo, SD rats; details: Rattus norvegicus, single intravenous injection (tail vein), LOTWR lasting for 30 seconds as criterion, class symbol, read-out: The minimum effective dose
Method: as §1, §2, §3, §4

SMILES	selectivity ratio [1]	minimal effective dose (rats)
Cc1ccc(NCC(=O)OCc2ccco2)cc1N(C)C [Example 39]	> 4	10 to 20 mg/kg
Cc1ccc(NCC(=O)OCc2ccco2)c(N(C)C)c1 [Example 7]	2 to 4	20 to 30 mg/kg
CN(C)c1cccc(NCC(=O)OCc2cccs2)c1 [Example 13]	≤ 2	> 30 mg/kg
Cc1ccc(NCC(=O)NCc2ccns2)cc1N(C)C [Example 25]	2 to 4	10 to 20 mg/kg
Cc1ccc(NCC(=O)NCc2ccno2)c(N(C)C)c1 [Example 9]	> 4	≤ 10 mg/kg
Cc1ccc(NCC(=O)OCc2cc(C)nn2C)c(N(C)C)c1 [Example 32]	> 4	≤ 10 mg/kg
Cc1ccc(NCC(=O)NCc2ccns2)c(N(C)C)c1 [Example 17]	> 4	10 to 20 mg/kg
Cc1ccc(NCC(=O)NCc2ccnn2C)c(N(C)C)c1 [Example 33]	≤ 2	> 30 mg/kg
Cc1cc(COC(=O)CNc2ccc(C)c(N(C)C)c2)n(C)n1 [Example 37]	> 4	≤ 10 mg/kg
Cc1ccc(OCC(=O)NCc2ccco2)c(N(C)C)c1 [Example 12]	> 4	10 to 20 mg/kg
Cc1ccc(OCC(=O)OCc2cccs2)cc1N(C)C [Example 24]	≤ 2	> 30 mg/kg
Cc1ccc(OCC(=O)OCc2cccs2)c(N(C)C)c1 [Example 6]	2 to 4	≤ 10 mg/kg
Cc1ccc(NCC(=O)OCc2ccoc2)cc1N(C)C [Example 30]	2 to 4	> 30 mg/kg
Cc1ccc(OCC(=O)OCc2ccco2)c(N(C)C)c1 [Example 23]	≤ 2	> 30 mg/kg
Cc1ccc(NCC(=O)OCc2ccsc2)cc1N(C)C [Example 38]	≤ 2	> 30 mg/kg
Cc1ccc(NCC(=O)OCc2ccoc2)c(N(C)C)c1 [Example 18]	≤ 2	> 30 mg/kg
Cc1ccc(NCC(=O)NCc2cc(C)nn2C)c(N(C)C)c1 [Example 31]	2 to 4	10 to 20 mg/kg
Cc1ccc(NCC(=O)NCc2ccco2)c(N(C)C)c1 [Example 11]	> 4	≤ 10 mg/kg
Cc1ccc(NCC(=O)OCc2ccnn2C)cc1N(C)C [Example 35]	> 4	≤ 10 mg/kg

SMILES	selectivity ratio [1]	minimal effective dose (rats)
Cc1cc(C)cc(CNC(=O)CNc2ccc(C)cc2N(C)C)c1 [Example 28]	≤ 2	20 to 30 mg/kg
Cc1ccc(NCC(=O)NCc2ccccc2)c(N(C)C)c1 [Example 27]	≤ 2	≤ 10 mg/kg
Cc1ccc(NCC(=O)OCc2ccsc2)c(N(C)C)c1 [Example 1]	> 4	≤ 10 mg/kg
Cc1ccc(NCC(=O)NCc2ccoc2)c(N(C)C)c1 [Example 16]	≤ 2	> 30 mg/kg
Cc1ccc(OCC(=O)NCc2cccs2)c(N(C)C)c1 [Example 10]	> 4	≤ 10 mg/kg
Cc1ccc(OCC(=O)NCc2ccsc2)c(N(C)C)c1 [Example 36]	2 to 4	10 to 20 mg/kg
Cc1ccc(NCC(=O)NCc2ncc[nH]2)c(N(C)C)c1 [Example 22]	≤ 2	> 30 mg/kg
CN(C)c1ccccc1NCC(=O)OCc1ccsc1 [Example 15]	2 to 4	> 30 mg/kg
Cc1ccc(NCC(=O)NCc2cnsc2)c(N(C)C)c1 [Example 19]	2 to 4	> 30 mg/kg
Cc1ccc(NCC(=O)NCc2ccco2)cc1N(C)C [Example 21]	≤ 2	> 30 mg/kg
Cc1ccc(NCC(=O)OCc2cccs2)c(N(C)C)c1 [Example 2]	2 to 4	> 30 mg/kg
Cc1ccc(NCC(=O)OCc2cccs2)cc1N(C)C [Example 8]	> 4	10 to 20 mg/kg
CN(C)c1cc(F)ccc1NCC(=O)OCc1cccs1 [Example 5]	≤ 2	20 to 30 mg/kg
Cc1ccc(NCC(=O)NCc2cccs2)cc1N(C)C [Example 29]	≤ 2	> 30 mg/kg
CN(C)c1ccccc1NCC(=O)OCc1cccs1 [Example 4]	> 4	≤ 10 mg/kg
Cc1ccc(SCC(=O)OCc2cccs2)c(N(C)C)c1 [Example 14]	2 to 4	> 30 mg/kg
Cc1ccc(NCC(=O)OCc2ccnn2C)c(N(C)C)c1 [Example 34]	> 4	≤ 10 mg/kg
Cc1ccc(SCC(=O)OCc2ccco2)c(N(C)C)c1 [Example 20]	≤ 2	> 30 mg/kg
Cc1ccc(NCC(=O)OCc2ccno2)c(N(C)C)c1 [Example 40]	≤ 2	> 30 mg/kg
